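The compound was tested at five concentrations on cells cultured in 96-well plates, with a 48-hour exposure period. GI50 marks 50% less growth.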 Calls of active or inactive are those of the source. Rule as the data show it: active = GI50 up to about 1.1 µM and inactive = higher.
Assays:
Test in all cases: NCI tumour cell line growth inhibition, 48 h
CAKI-1 = tested on: CAKI-1
COLO 205 = tested on: COLO 205
HCT-15 = tested on: HCT-15
HOP-62 = tested on: HOP-62
HT-29 = tested on: HT-29
IGROV-1 = tested on: IGROV-1
MDA-MB-231 = tested on: MDA-MB-231
NCI-H226 = tested on: NCI-H226
NCI-H522 = tested on: NCI-H522
OVCAR-5 = tested on: OVCAR-5
RPMI-8226 = tested on: RPMI-8226
SK-MEL-5 = tested on: SK-MEL-5
SK-OV-3 = tested on: SK-OV-3
SNB-19 = tested on: SNB-19
TK-10 = tested on: TK-10
U-251 = tested on: U-251
UACC-257 = tested on: UACC-257
UACC-62 = tested on: UACC-62
UO-31 = tested on: UO-31
RXF 393 = tested on: RXF 393

SMILES	GI50 (CAKI-1)	GI50 (COLO 205)	GI50 (HCT-15)	GI50 (HOP-62)	GI50 (HT-29)	GI50 (IGROV-1)	GI50 (MDA-MB-231)	GI50 (NCI-H226)	GI50 (NCI-H522)	GI50 (OVCAR-5)	GI50 (RPMI-8226)	GI50 (SK-MEL-5)	GI50 (SK-OV-3)	GI50 (SNB-19)	GI50 (TK-10)	GI50 (U-251)	GI50 (UACC-257)	GI50 (UACC-62)	GI50 (UO-31)	GI50 (RXF 393)
COc1cc(C(c2cc3c(cc2O)OCO3)N2CCCC2)cc(OC)c1OC (stereo not drawn)	13.6 µM (inactive)	11.7 µM (inactive)	8.43 µM	30.5 µM (inactive)	10.4 µM (inactive)	12.4 µM (inactive)	15.9 µM (inactive)	17.4 µM (inactive)	3.35 µM (inactive)	25.9 µM (inactive)	11.6 µM (inactive)	16.4 µM (inactive)	30.3 µM (inactive)	19.3 µM (inactive)	20.2 µM (inactive)	16.9 µM (inactive)	17.5 µM (inactive)	15.8 µM (inactive)	14.8 µM (inactive)	
N#CCc1nc(O)c2ccccc2n1	> 100 µM (inactive)	98.9 µM (inactive)	48 µM	> 100 µM (inactive)	> 100 µM (inactive)	> 100 µM (inactive)	> 100 µM (inactive)	> 100 µM (inactive)		> 100 µM (inactive)		> 100 µM (inactive)	> 100 µM (inactive)	> 100 µM (inactive)	> 100 µM (inactive)	> 100 µM (inactive)	> 100 µM (inactive)		> 100 µM (inactive)	
CN/N=C(\C)C(CN1CCCCC1)C(C1=C(O)c2ccccc2OC1)c1ccccc1 (stereo not drawn)	> 100 µM (inactive)	38.4 µM (inactive)	> 100 µM	> 100 µM (inactive)	> 100 µM (inactive)	78.3 µM (inactive)		> 100 µM (inactive)	> 100 µM (inactive)	> 100 µM (inactive)	44.3 µM (inactive)	> 100 µM (inactive)	> 100 µM (inactive)	> 100 µM (inactive)	> 100 µM (inactive)	91.2 µM (inactive)	> 100 µM (inactive)	48 µM (inactive)	50.4 µM (inactive)	> 100 µM (inactive)
COc1ccc([N+](=O)[O-])c2c(NCCCN(C)C)c(C)c(C)nc12	> 100 µM (inactive)	26.2 µM (inactive)	22.4 µM	89.5 µM (inactive)	42.6 µM (inactive)	36.6 µM (inactive)	57.5 µM (inactive)		27.9 µM (inactive)	> 100 µM (inactive)	31.8 µM (inactive)	46.8 µM (inactive)	> 100 µM (inactive)	44.8 µM (inactive)	> 100 µM (inactive)	> 100 µM (inactive)	> 100 µM (inactive)	81.3 µM (inactive)	> 100 µM (inactive)	
CNC(=O)CN(CC(=O)NC)C(=O)NC	> 100 µM (inactive)	> 100 µM (inactive)	> 100 µM	> 100 µM (inactive)	> 100 µM (inactive)	> 100 µM (inactive)		> 100 µM (inactive)	> 100 µM (inactive)	> 100 µM (inactive)	> 100 µM (inactive)	> 100 µM (inactive)	> 100 µM (inactive)	> 100 µM (inactive)	> 100 µM (inactive)	> 100 µM (inactive)	> 100 µM (inactive)	> 100 µM (inactive)	> 100 µM (inactive)	> 100 µM (inactive)
NCCCCCNOCCCN		> 100 µM (inactive)	> 100 µM	> 100 µM (inactive)	> 100 µM (inactive)	> 100 µM (inactive)	> 100 µM (inactive)	> 100 µM (inactive)	> 100 µM (inactive)	> 100 µM (inactive)	> 100 µM (inactive)	> 100 µM (inactive)	> 100 µM (inactive)	> 100 µM (inactive)	> 100 µM (inactive)	> 100 µM (inactive)	> 100 µM (inactive)	> 100 µM (inactive)	> 100 µM (inactive)	
Cc1ccc2c(c1)nc(N)n[n+]2[O-]	> 100 µM (inactive)	> 100 µM (inactive)	> 100 µM	> 100 µM (inactive)	> 100 µM (inactive)	> 100 µM (inactive)	> 100 µM (inactive)	> 100 µM (inactive)	> 100 µM (inactive)	> 100 µM (inactive)	> 100 µM (inactive)	> 100 µM (inactive)	> 100 µM (inactive)	> 100 µM (inactive)	> 100 µM (inactive)	> 100 µM (inactive)	> 100 µM (inactive)	> 100 µM (inactive)	> 100 µM (inactive)	

From ChEMBL document CHEMBL1201862, “PubChem BioAssay data set” (2004)
